According to ChEMBL document CHEMBL5532665 (J Med Chem, 2024):

Tests used:
Mu-type opioid receptor [1] = biological target: T1, Mu-type opioid receptor (Homo sapiens, UniProt P35372); assay: Agonist activity at human MOR expressed in CHO-K1 cells co-expressing G-alpha15 by calcium mobilization assay relative to control; assay type: functional, cell-based; conditions: filed as agonist
[2] = biological target: T2, Delta-type opioid receptor (Homo sapiens, UniProt P41143); assay: Agonist activity at human DOR expressed in CHO-K1 cells co-expressing G-alpha15 by calcium mobilization assay relative to control; assay type: functional, cell-based; conditions: filed as agonist
Mus musculus [3] = assay: Antinociceptive activity in Kunming mouse model assessed as latency of tail withdrawal at 13.9 nmol/kg, sc measured for 120 mins by tail-flick test relative to control; assay type: functional; conditions: 2 h
Mus musculus [4] = assay: Antinociceptive activity in Kunming mouse model assessed as latency of tail withdrawal at 13.9 nmol/kg, sc measured for 30 mins by tail-flick test relative to control; assay type: functional; conditions: 0.5 h
Mus musculus [5] = assay: Antinociceptive activity in Kunming mouse model administered subcutaneously by tail-flick test; assay type: functional; conditions: route sc
Mus musculus [6] = assay: Antinociceptive activity in Kunming mouse model administered subcutaneously measured for 5 to 15 mins by acetic acid-induced writhing test; assay type: functional; conditions: route sc, time 5-15 min
Mus musculus [7] = assay: Antinociceptive activity in Kunming mouse model administered orally by tail-flick test; assay type: functional; conditions: route po
Mus musculus [8] = assay: Antinociceptive activity in Kunming mouse model assessed as latency of tail withdrawal at 13.9 nmol/kg, sc measured for 10 mins by tail-flick test relative to control; assay type: functional
Mus musculus [9] = assay: Inhibition of gastrointestinal motility in fasted Kunming mouse model treated subcutaneously for 15 mins followed by charcoal-gum arabic treatment measured after 30 mins; assay type: functional; conditions: 0.75 h, route sc, time 45 min
Mus musculus [10] = assay: Antinociceptive activity in Kunming mouse model assessed as latency of tail withdrawal at 13.9 nmol/kg, sc measured for 60 mins by tail-flick test relative to control; assay type: functional; conditions: 1 h
[11] = biological target: T2, Delta-type opioid receptor; assay: Agonist activity at human DOR expressed in CHO-K1 cells co-expressing G-alpha15 by calcium mobilization assay; assay type: functional, cell-based
Mu-type opioid receptor [12] = biological target: T1, Mu-type opioid receptor; assay: Agonist activity at human MOR expressed in CHO-K1 cells co-expressing G-alpha15 by calcium mobilization assay; assay type: functional, cell-based
Mus musculus [13] = assay: Antinociceptive activity in Kunming mouse model assessed as latency of tail withdrawal at 1416 nmol/kg, sc measured for 60 mins by tail-flick test relative to control; assay type: functional; conditions: 1 h
Mus musculus [14] = assay: Antinociceptive activity in Kunming mouse model assessed as latency of tail withdrawal at 1416 nmol/kg, sc measured for 120 mins by tail-flick test relative to control; assay type: functional; conditions: 2 h
Mus musculus [15] = assay: Antinociceptive activity in Kunming mouse model assessed as latency of tail withdrawal at 1416 nmol/kg, sc measured for 10 mins by tail-flick test relative to control; assay type: functional
Mus musculus [16] = assay: Antinociceptive activity in Kunming mouse model assessed as latency of tail withdrawal at 1416 nmol/kg, sc measured for 30 mins by tail-flick test relative to control; assay type: functional; conditions: 0.5 h
[17] = biological target: T3, Kappa-type opioid receptor (Homo sapiens, UniProt P41145); assay: Agonist activity at human KOR expressed in CHO-K1 cells co-expressing G-alpha15 by calcium mobilization assay; assay type: functional, cell-based
Mus musculus [18] = assay: Antinociceptive activity in Kunming mouse model assessed as latency of tail withdrawal at 138.8 nmol/kg, sc measured for 60 mins by tail-flick test relative to control; assay type: functional; conditions: 1 h
Mus musculus [19] = assay: Antinociceptive activity in Kunming mouse model assessed as latency of tail withdrawal at 138.8 nmol/kg, sc measured for 120 mins by tail-flick test relative to control; assay type: functional; conditions: 2 h
Mus musculus [20] = assay: Antinociceptive activity in Kunming mouse model assessed as latency of tail withdrawal at 138.8 nmol/kg, sc measured for 10 mins by tail-flick test relative to control; assay type: functional
Mus musculus [21] = assay: Antinociceptive activity in Kunming mouse model assessed as latency of tail withdrawal at 138.8 nmol/kg, sc measured for 30 mins by tail-flick test relative to control; assay type: functional; conditions: 0.5 h
[22] = Stability in mouse plasma assessed as half life at 0.01 mol/L measured for 72 hrs by RP-HPLC analysis; assay type: ADME, cell-free
[23] = biological target: T3, Kappa-type opioid receptor; assay: Agonist activity at human KOR expressed in CHO-K1 cells co-expressing G-alpha15 by calcium mobilization assay relative to control; assay type: functional, cell-based; conditions: filed as agonist

T2 sequence (P41143 whole entry): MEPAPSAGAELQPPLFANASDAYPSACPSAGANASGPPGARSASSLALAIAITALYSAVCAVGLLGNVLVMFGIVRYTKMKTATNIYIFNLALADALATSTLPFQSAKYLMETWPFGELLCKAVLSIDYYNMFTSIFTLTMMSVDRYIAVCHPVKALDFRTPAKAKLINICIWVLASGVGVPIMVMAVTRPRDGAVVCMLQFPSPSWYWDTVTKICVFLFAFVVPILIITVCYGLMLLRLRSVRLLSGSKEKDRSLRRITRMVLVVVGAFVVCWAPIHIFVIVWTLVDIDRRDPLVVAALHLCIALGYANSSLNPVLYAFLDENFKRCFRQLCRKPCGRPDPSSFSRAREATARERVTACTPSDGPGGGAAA
T3 sequence (P41145 whole entry): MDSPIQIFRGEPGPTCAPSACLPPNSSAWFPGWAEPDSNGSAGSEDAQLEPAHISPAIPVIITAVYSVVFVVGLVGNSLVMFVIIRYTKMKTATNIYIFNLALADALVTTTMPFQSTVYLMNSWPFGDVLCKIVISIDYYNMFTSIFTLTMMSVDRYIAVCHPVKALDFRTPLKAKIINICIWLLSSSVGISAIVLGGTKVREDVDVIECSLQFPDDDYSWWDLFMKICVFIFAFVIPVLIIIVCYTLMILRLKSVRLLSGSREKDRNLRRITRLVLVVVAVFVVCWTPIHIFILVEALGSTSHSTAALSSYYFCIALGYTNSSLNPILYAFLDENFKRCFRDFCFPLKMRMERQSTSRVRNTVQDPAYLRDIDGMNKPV
T1 sequence (P35372 whole entry): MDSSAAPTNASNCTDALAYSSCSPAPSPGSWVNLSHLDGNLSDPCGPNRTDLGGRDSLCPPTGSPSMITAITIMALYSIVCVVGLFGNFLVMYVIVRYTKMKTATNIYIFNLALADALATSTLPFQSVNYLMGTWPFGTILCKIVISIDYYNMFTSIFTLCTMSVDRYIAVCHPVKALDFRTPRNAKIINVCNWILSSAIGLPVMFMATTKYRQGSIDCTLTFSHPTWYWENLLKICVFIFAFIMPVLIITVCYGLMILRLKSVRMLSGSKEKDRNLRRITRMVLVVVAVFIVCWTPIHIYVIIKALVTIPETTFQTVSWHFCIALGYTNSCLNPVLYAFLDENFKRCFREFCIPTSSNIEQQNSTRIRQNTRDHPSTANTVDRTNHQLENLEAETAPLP

SMILES: CN1CC(=O)N[C@@H](Cc2ccccc2)C(=O)N[C@@H](C(=O)N2CCC[C@H]2C(N)=O)CC(=O)NCCCC[C@@H](NC(=O)[C@@H](N)Cc2ccc(O)cc2)C1=O
- Emax (Mu-type opioid receptor [1]): 118%
- Emax [2]: 100%

SMILES: CN1C(=O)CNC(=O)[C@H](NC(=O)[C@@H](N)Cc2ccc(O)cc2)CCCCNC(=O)C[C@@H](C(=O)N2CCC[C@@H]2C(N)=O)NC(=O)[C@@H]1Cc1ccccc1
- MPE (Mus musculus [3]): 75.3%
- MPE (Mus musculus [4]): 93.8%
- ED50 (Mus musculus [5]): 0.0006 µmol/kg
- ED50 (Mus musculus [6]): 0.0025 µmol/kg
- ED50 (Mus musculus [7]): 0.0003 µmol/kg
- MPE (Mus musculus [8]): 81.9%
- ED50 (Mus musculus [9]): 0.0326 µmol/kg
- MPE (Mus musculus [10]): 93.9%

SMILES: NC(=O)[C@H]1CCCN1C(=O)[C@@H]1CC(=O)NCCCC[C@@H](NC(=O)[C@@H](N)Cc2ccc(O)cc2)C(=O)NCC(=O)N[C@@H](CCc2ccccc2)C(=O)N1
- EC50 ([11]; cho-k1): 64.4 nM
- EC50 (Mu-type opioid receptor [12]; cho-k1): 184 nM

SMILES: NC(=O)[C@H]1CCCN1C(=O)[C@@H]1CC(=O)NCCCC[C@@H](NC(=O)[C@@H](N)Cc2ccc(O)cc2)C(=O)NCC(=O)N(Cc2ccccc2)CC(=O)N1
- MPE (Mus musculus [13]): 76.3%
- MPE (Mus musculus [14]): 7.7%
- MPE (Mus musculus [15]): 46.8%
- MPE (Mus musculus [16]): 91.4%

SMILES: NC(=O)[C@H]1CCCN1C(=O)[C@@H]1CC(=O)NCCCC[C@@H](NC(=O)[C@@H](N)Cc2ccc(O)cc2)C(=O)NCCC(=O)N[C@@H](Cc2ccccc2)C(=O)N1
- EC50 (Mu-type opioid receptor [12]; cho-k1): 974 nM

SMILES: NC(=O)[C@@H]1CC(=O)NCCCC[C@@H](NC(=O)[C@@H](N)Cc2ccc(O)cc2)C(=O)NCC(=O)N[C@@H](Cc2ccccc2)C(=O)N1
- EC50 ([17]; cho-k1): 1290 nM
- EC50 ([11]; cho-k1): 12.5 nM
- EC50 (Mu-type opioid receptor [12]; cho-k1): 1.4 nM

SMILES: Cc1ccc(C[C@@H]2NC(=O)CNC(=O)[C@H](NC(=O)[C@@H](N)Cc3ccc(O)cc3)CCCCNC(=O)C[C@@H](C(=O)N3CCC[C@@H]3C(N)=O)NC2=O)cc1 [listing 1 of 2 here]
- MPE (Mus musculus [18]): 67.1%
- MPE (Mus musculus [19]): 39.2%
- MPE (Mus musculus [20]): 44.8%
- MPE (Mus musculus [21]): 95.6%

SMILES: Cc1ccc(C[C@@H]2NC(=O)CNC(=O)[C@H](NC(=O)[C@@H](N)Cc3ccc(O)cc3)CCCCNC(=O)C[C@@H](C(=O)N3CCC[C@@H]3C(N)=O)NC2=O)cc1 [listing 2 of 2 here]
- EC50 ([17]; cho-k1): 2430 nM
- EC50 ([11]; cho-k1): 22.2 nM
- EC50 (Mu-type opioid receptor [12]; cho-k1): 29.1 nM

SMILES: CC1(C)NC(=O)[C@H](NC(=O)[C@@H](N)Cc2ccc(O)cc2)CCCCNC(=O)C[C@@H](C(=O)N2CCC[C@@H]2C(N)=O)NC(=O)[C@H](Cc2ccccc2)NC1=O
- EC50 ([17]; cho-k1): 7250 nM
- half-life at 0.01 mol/L [22]: > 4320 min
- EC50 ([11]; cho-k1): 49.1 nM
- EC50 (Mu-type opioid receptor [12]; cho-k1): 5.3 nM

SMILES: C[C@H]1NC(=O)[C@H](NC(=O)[C@@H](N)Cc2ccc(O)cc2)CCCCNC(=O)C[C@H](C(=O)N2CCC[C@H]2C(N)=O)NC(=O)[C@H](Cc2ccccc2)NC1=O
- MPE (Mus musculus [3]): 44.4%
- Emax (Mu-type opioid receptor [1]): 115%
- MPE (Mus musculus [4]): 91.4%
- half-life at 0.01 mol/L [22]: > 4320 min
- MPE (Mus musculus [8]): 63.6%
- EC50 (Mu-type opioid receptor [12]; cho-k1): 62.4 nM
- MPE (Mus musculus [10]): 88.4%

SMILES: NC(=O)[C@@H]1CCCN1C(=O)[C@H]1CC(=O)NCCCC[C@@H](NC(=O)[C@@H](N)Cc2ccc(O)cc2)C(=O)NCCC(=O)N[C@@H](Cc2ccccc2)C(=O)N1
- Emax (Mu-type opioid receptor [1]): 95.9%

SMILES: NC(=O)[C@H]1CCCN1C(=O)[C@@H]1CC(=O)NCCCC[C@@H](NC(=O)[C@@H](N)Cc2ccc(O)cc2)C(=O)NCC(=O)N[C@@H](Cc2ccc3ccccc3c2)C(=O)N1
- half-life at 0.01 mol/L [22]: 1220 min
- EC50 ([11]; cho-k1): 2.2 nM
- EC50 (Mu-type opioid receptor [12]; cho-k1): 1.8 nM

SMILES: NC(=O)CNC(=O)[C@H]1CC(=O)NCCCC[C@@H](NC(=O)[C@@H](N)Cc2ccc(O)cc2)C(=O)NCC(=O)N[C@@H](Cc2ccccc2)C(=O)N1
- Emax (Mu-type opioid receptor [1]): 91.1%
- Emax [2]: 104%
- Emax [23]: 48.4%

SMILES: NC(=O)[C@H]1CCCN1C(=O)[C@@H]1CC(=O)NCCCC[C@@H](NC(=O)[C@@H](N)Cc2ccc(O)cc2)C(=O)NCC(=O)N[C@@H](Cc2ccccc2)C(=O)N1
- EC50 [17]: 2830 nM
- half-life at 0.01 mol/L [22]: 2510 min
- EC50 [11]: 2.1 nM
- EC50 (Mu-type opioid receptor [12]): 31.1 nM
